{
  "source": "patent US6303621A",
  "about": "“Method for treating cancers using a diiodo thyronine analogue having no significant hormonal activity and a vinca alkaloid and compositions comprising the same” (priority 1999, dated 2001)",
  "key": {"[1]": {"system": "thyroid", "conditions": "rats; as compared to thyroxine; cited from earlier work"}, "[2]": {"system": "cells (DNA breaks)", "experiment": "DNA breaks in cells incubated with DIME", "type": "cell-based"}, "[3]": {"system": "DIME-tolerant clones", "experiment": "DIME uptake by DIME-tolerant clones", "conditions": "DIME-tolerant clones grown in 1.5 μM DIME", "method": "(§2) DIME-tolerant clones DR6and DR 7 were isolated by incubation of cells in a mediim containing 1.5 μM DIME for 11 days. At that time surviving colonies were picked with the use of cloning rings and plated for growth in fresh mediim still containing 1.5 μM DIME. After two weeks of growth in the presence of drug the cells were aliquoted and frozen. For each experiment a vial of frozen cells was thawed, the cells were plated in the absence of drug, and incubated for 2-3 days in drug-free mediim."}, "[4]": {"system": "DIME-tolerant clones", "method": "as §2"}, "[5]": {"system": "caspase 3", "experiment": "Caspase 3 in cell-free extracts treated with drugs", "type": "biochemical", "conditions": "results not shown"}, "[6]": {"system": "microtubules", "experiment": "Microtubule binding"}, "[7]": {"system": "DIME-tolerant clones DR6 and DR7", "experiment": "Colony formation of DIME-tolerant clones", "type": "cell-based, human", "conditions": "concentrations that reduce colony formation by 10^3 in parent line", "source_text": "e. Colony formation was quantitated as reported by. Each colony of 50 cells is the outgrowth from one cell, plated 10 days before colony counting."}, "[8]": {"system": "MDA-MB-231 human mammary cancer cells", "experiment": "Cell growth kinetics, median effect and isobologram", "type": "cell-based", "conditions": "0.75 μM DIME (or DIPE) or 1-2 nM vincristine alone", "protocol": "(§1) c. MDA-MB-231 human mammary cancer cells were cultured and treated as reported previously by Mendeleyev et al., International Journal of Oncology 10:689-695 (1997) and Zhen et al., International Journal of Oncology 10:689-695 (1997). For the assay of cell growth kinetics cells, were seeded into 2cm^2 wells (24-well plates) at a density of 8×10^3 /cm^2 at the time of seeding. Vincristine (or vinblastine) and DIME (or DIPE) were added from DMSO dilutions (1-2 μl/ 500 μl culture mediim) either from separate drug solutions or for the construction of median effect plot (FIG. 1) from a pre-made mixture of both drugs (e.g. 0.75 μM DIME+2 nM vincristine) and simultaneous dilutions thereof (Chou et al. Eur. J. Biochem. 115: 207-216 (1981)). The cultures were incubated at 37° C. for 4 days and growth rates, leading to near confluency in drug-free controls, were monitored by cell counting in a haemocytometer after detachment by trypsin treatment Mendeleyev et al., International Journal of Oncology 10:689-695 (1997) and Zhen et al., International Journal of Oncology 10:689-695 (1997). Mathematical analysis of growth curves and median effects and isobolograms were carried out by published procedures (Chou et al. J. Theor. Biol. 65: 345-356 (1977), Chou et al. Eur. J. Biochem. 115: 207-216 (1981) and Chou et al. Adv. in Enzyme Regulation 22:27-55 (1984)) and error bars indicate SD=Σx^2 +L -(Σx)^2 /n where X is the numerical results with n=3-5.\nKinetics of vincristine-DIME interactions: Interpretation of conventional isobolograms, consisting of plots of I50 values of two drugs alone and in combination is valid only if it is proven kinetically that both drugs bind at mutually exclusive sites.\nIsobologram analysis of the combined action of DIME and vincristine is illustrated in FIG. 2, and it is evident that the action of the two drugs in combination exceed an additive effect, which is depicted by a concave curve, contrasting with additive action, which would display a straight line connecting the I50 values for each drug alone (dotted line in FIG. 2). […]"}, "[9]": {"system": "DIME-tolerant cells (DR6, DR7)", "experiment": "Cell growth of DIME-tolerant cells", "type": "cell-based, human", "protocol": "as §1, with “Mathematical analysis of growth curves and median effects and isobolograms were carried out by published procedures (Chou et al. J. Theor. Biol. 65: 345-356 (1977), Chou et al. Eur. J. Biochem. 115: 207-216 (1981) and Chou et al. Adv. in Enzyme Regulation 22:27-55 (1984)) and error bars indicate SD=Σx^2 +L -(Σx)^2 /n where X is the numerical results with n=3-5.” left out"}, "[10]": {"system": "tumor cells", "experiment": "Tumor cell apoptosis and micronucleation", "type": "cell-based"}, "[11]": {"system": "human cancer cells", "experiment": "Cytostatic / cytocidal activity of DIME analogues on human cancer cells", "type": "cell-based", "source_text": "Such tests may also screen for the ability of a particular compound to inhibit malignant tumor cell growth in vitro or in vivo or abolish tumorigenicity of malignant cells.\nAs will be appreciated by the skilled artisan, many varieties of malignant tumor cell cultures and cell lines may be used to screen for activity, including but not limited to HL-60, HT-144, E-ras-20, DU-145, MDA-168, MCF-7, 855-2 and MDA-MB-231. Of course, other in vitro and/or in vivo assays as will be apparent to the skilled artisan to screen for anti-tumor and/or anti-cancer activity may also be employed to identify effective diiodo thyronine analogues useful in the present invention."}},
  "note": "Entries after “also recorded” stand apart in the source; their conditions may differ.",
  "data": [
    {"smiles": "COC(=O)c1cc(I)c(Oc2ccc(OC)cc2)c(I)c1", "note": "[DIME, methyl 3,5-diiodo-4-(4'-methoxyphenoxy) benzoate]", "values": [
      {"measurement": "Inhibition of uptake of iodine into the thyroid", "setting": "[1]", "value": 15, "unit": "%"},
      {"measurement": "DNA breaks", "setting": "[2]", "value": "induces DNA breaks"},
      {"measurement": "Reduction of DIME uptake", "setting": "[3]", "value": 50, "unit": "%"},
      {"measurement": "Drug permeation in DIME-tolerant cells", "setting": "[4]", "value": "significant decrease of drug permeation"},
      {"measurement": "Caspase 3 increase in cell-free extracts", "setting": "[5]", "value": "do not show an increase in caspase 3"},
      {"measurement": "Binding to microtubules", "setting": "[6]", "value": "bind to microtubules"},
      {"measurement": "Inhibition of colony formation of DR6 and DR7 clones", "setting": "[7]", "value": "only marginal inhibition of colony formation"},
      {"measurement": "Growth rate with single drug", "setting": "[8]", "value": "do not elicit effects that exceed the SD of average cell growth rates; also recorded: fall within SD values"},
      {"measurement": "Doubling time of DIME-tolerant cells after removal of DIME", "setting": "[9]; DIME removed", "value": "40 to 45", "unit": "h"},
      {"measurement": "Doubling time of DIME-tolerant cells", "setting": "[9]; in the presence of 1.5 μM DIME, cancer cells 20 hrs", "value": "70 to 78", "unit": "h"},
      {"measurement": "Tumor cell apoptosis / micronucleation", "setting": "[10]", "value": "induce tumor cell apoptosis preceded by micronucleation"},
      {"measurement": "Cytostatic and cytocidal activity in cellular assays", "setting": "[11]", "value": "highly active"},
      {"measurement": "Growth of malignant cell types", "setting": "[11]", "value": "inhibit the growth of a variety of malignant cell types"}
    ]}
  ]
}
